Results as given in patent US20120128860A1, “PREPARATION OF VEGETABLE MATERIAL AND FOOD PRODUCTS” (priority 2009, published 2012).

Tested on: tobacco plants (Nicotiana tabacum)
Assay: Chlorophyll a and b content of tobacco leaves after pre-harvest kinetin treatment, soaking and storage
Assay type: in vivo
Design: reduction after 27 d (chlorophyll): concentration or dose not given beside the values
Conditions: cytokinin 5 days pre-harvest; for reduction after 27 d (chlorophyll): 27 d storage; for chlorophyll level after 0 d storage / chlorophyll level after 3 d storage / chlorophyll level after 7 d storage / chlorophyll level after 10 d storage / chlorophyll level after 14 d storage / chlorophyll level after 20 d storage / chlorophyll level after 27 d storage: stored 4° C. dark
Protocol: Determination of chlorophyll contents of fresh leaves using a spectrophotometer. Procedure: • 1. Homogenisation of plant tissue (100 mg) in liquid nitrogen. For each data point at least three biological samples were harvested. • 2. Addition of 400 microliter acetone in 10 micromolar KOH and subsequent vortexing • 3. Centrifugation of the homogenate at 13,000 rpm for 10 min to remove cell debris and proteins • 4. Transfer of the supernatant into new test tubes • 5. Addition 200 microliter of extraction mixture to the pellet as mentioned above and vortexing • 6. Centrifugation of the homogenate at 13,000 rpm for 10 min • 7. Mix of the supernatant with the supernatant from step 4 • 8. Repeat of steps 5-7 three times until the pellet is completely white • 9. Dilution of the sample 1:10 in acetone and measurement of absorption at 664, 646/7 and 750 nm in a spectrophotometer. All absorbance measurements at the indicated wavelength need subtraction of the absorbance at 750 nm. Calculation of the chlorophyll contents by comparing with calibration curves.
Determination of chlorophyll contents of leaves by HPLC. Procedure: • 1. Homogenisation of 100 mg plant material in liquid nitrogen in a test tube • 2. Addition of 500 microliter acetone with 10 micromolar KOH and vortexing. • 3. Centrifugation of the suspension for 10 min at 4° C. at 13.000 rpm. • 4. The supernatant is transferred into new test tube • 5. Addition of 500 microliter acetone to the pellet and resuspension of the pellet • 6. Centrifugation for 10 min at 4° C. at 13.000 rpm. • 7. The supernatant is combined with the supernatant from step 4 • 8. The samples are vortexed and centrifuged for 10 min at 4° C. at 13,000 rpm. • 9. A 40 microliter aliquot of the extract is mixed with 160 microliter water • 10. The sample is transferred into a HPLC vial • 11. An aliquot of 10-100 microliter is injected into the HPLC column (RP C18 column) • 12. Running buffers: Acetonitril/H2O/triethylamine (1798:200:2) and ethyl acetate
Objective of the experiments: to combine effects of pre-harvest treatment of tobacco plants with the growth hormone kinetin and subsequently soaking with a buffer solution on the stability of chlorophyll after heat treatment followed by different storage periods.
A 1 mM kinetin solution in water was made by dissolving kinetin dropwise with 10 microliter 1M NaOH, then the solution was neutralized to pH 7.0 with HCl. This 1 mM kinetin aqueous solution was injected into the leaves of growing tobacco plants (Nicotiana tabacum). The application of cytokinin was repeated once a day for five successive days. At day 7, tobacco leaves were harvested and stored in aluminium foils. Control plants were treated with the same solution at pH 7.0 (in water), but without kinetin.
After harvest, leaves of the harvested plants (both treated with cytokinin, as well as the control plants) were separated in batches, which were subsequently treated at different temperatures in one the following ways: • 1. leaves were soaked in tap water during 1 minute at room temperature; • 2. leaves were soaked in a buffer solution of pH 7.2 during 1 minute at room temperature; • 3. leaves were soaked in tap water during 1 minute at 70° C.; • 4. leaves were soaked in a buffer solution of pH 7.2 during 1 minute at 70° C.; • 5. leaves were soaked in tap water during 1 minute at 90° C.; • 6. leaves were soaked in a buffer solution of pH 7.2 during 1 minute at 90° C.;
Immediately after each of these steps, the soaked leaves were cooled shortly in a cold tap water bath at 3° C.
The aqueous buffer solution contained 137 mM NaCl, 2.7 mM KCL, 10 mM Na2HPO4 and 2 mM KH2PO4, and was adjusted to pH 7.2 with more hydrogen phosphate or dihydrogenphosphate if required.
Finally the chlorophyll content of the leaves was quantified after storage in tissue papers at 4° C. in the dark at various moments in time. […]

[1] = soaked 1 min in buffer pH 7.2 at 70° C.
[2] = soaked 1 min in buffer pH 7.2 at 90° C.
[3] = soaked 1 min in buffer pH 7.2 at room temperature
[4] = soaked 1 min in water at 70° C.
[5] = soaked 1 min in water at 90° C.
[6] = soaked 1 min in water at room temperature

c1coc(CNc2ncnc3[nH]cnc23)c1 [cytokinin, 6-furfurylaminopurine]
reduction after 27 d (chlorophyll) [1]: 11%
chlorophyll level after 0 d storage [1]: 18 micromole per gram fresh weight
chlorophyll level after 3 d storage [1]: 17.5 micromole per gram fresh weight
chlorophyll level after 7 d storage [1]: 17.2 micromole per gram fresh weight
chlorophyll level after 10 d storage [1]: 17 micromole per gram fresh weight
chlorophyll level after 14 d storage [1]: 17 micromole per gram fresh weight
chlorophyll level after 20 d storage [1]: 16.8 micromole per gram fresh weight
chlorophyll level after 27 d storage [1]: 16 micromole per gram fresh weight
chlorophyll level after 0 d storage [2]: 18 micromole per gram fresh weight
chlorophyll level after 3 d storage [2]: 17.5 micromole per gram fresh weight
chlorophyll level after 7 d storage [2]: 17 micromole per gram fresh weight
chlorophyll level after 10 d storage [2]: 16.5 micromole per gram fresh weight
chlorophyll level after 14 d storage [2]: 16 micromole per gram fresh weight
chlorophyll level after 20 d storage [2]: 15.5 micromole per gram fresh weight
chlorophyll level after 27 d storage [2]: 15 micromole per gram fresh weight
reduction after 27 d (chlorophyll) [3]: 17%
chlorophyll level after 0 d storage [3]: 18.5 micromole per gram fresh weight
chlorophyll level after 3 d storage [3]: 17.5 micromole per gram fresh weight
chlorophyll level after 7 d storage [3]: 16.5 micromole per gram fresh weight
chlorophyll level after 10 d storage [3]: 15.5 micromole per gram fresh weight
chlorophyll level after 14 d storage [3]: 16 micromole per gram fresh weight
chlorophyll level after 20 d storage [3]: 15.5 micromole per gram fresh weight
chlorophyll level after 27 d storage [3]: 15 micromole per gram fresh weight
chlorophyll level after 0 d storage [4]: 17.5 micromole per gram fresh weight
chlorophyll level after 3 d storage [4]: 17 micromole per gram fresh weight
chlorophyll level after 7 d storage [4]: 16.5 micromole per gram fresh weight
chlorophyll level after 10 d storage [4]: 16.5 micromole per gram fresh weight
chlorophyll level after 14 d storage [4]: 16 micromole per gram fresh weight
chlorophyll level after 20 d storage [4]: 16 micromole per gram fresh weight
chlorophyll level after 27 d storage [4]: 15.5 micromole per gram fresh weight
reduction after 27 d (chlorophyll) [5]: 50%
chlorophyll level after 0 d storage [5]: 15 micromole per gram fresh weight
chlorophyll level after 3 d storage [5]: 13.5 micromole per gram fresh weight
chlorophyll level after 7 d storage [5]: 12.5 micromole per gram fresh weight
chlorophyll level after 10 d storage [5]: 11 micromole per gram fresh weight
chlorophyll level after 14 d storage [5]: 9.8 micromole per gram fresh weight
chlorophyll level after 20 d storage [5]: 8.8 micromole per gram fresh weight
chlorophyll level after 27 d storage [5]: 7.5 micromole per gram fresh weight
reduction after 27 d (chlorophyll) [6]: 9%
chlorophyll level after 0 d storage [6]: 18 micromole per gram fresh weight
chlorophyll level after 3 d storage [6]: 17.8 micromole per gram fresh weight
chlorophyll level after 7 d storage [6]: 17.2 micromole per gram fresh weight
chlorophyll level after 10 d storage [6]: 16.5 micromole per gram fresh weight
chlorophyll level after 14 d storage [6]: 16.2 micromole per gram fresh weight
chlorophyll level after 20 d storage [6]: 16 micromole per gram fresh weight
chlorophyll level after 27 d storage [6]: 16 micromole per gram fresh weight
